According to PubChem BioAssay (NCI):
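GI50 is the concentration that inhibits growth by half. TGI marks complete inhibition of growth.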

How the values were obtained:
Assay in all cases: growth of human tumour cells (NCI), 384-well format
[1] = system: T-47D breast
[2] = system: A498 renal
[3] = system: MCF7 breast
[4] = system: A549 NSCLC
[5] = system: CAKI-1 renal
[6] = system: K-562 leukemia
[7] = system: OVCAR-4 ovarian
[8] = system: SK-OV-3 ovarian
[9] = system: NCI-H322M lung
[10] = system: ACHN renal
[11] = system: CCRF-CEM leukemia
[12] = system: OVCAR-8 ovarian
[13] = system: U251 glioblastoma
[14] = system: NCI/ADR-RES ovarian
[15] = system: LOX IMVI melanoma
[16] = system: MOLT-4 leukemia
[17] = system: HCT-116 colon
[18] = system: UACC-257 melanoma
[19] = system: SK-MEL-5 melanoma
[20] = system: HOP-92 NSCLC
[21] = system: HS 578T breast
[22] = system: SF-539 CNS
[23] = system: HCC-2998 colon
[24] = system: SF-268 CNS
[25] = system: NCI-H226 lung
[26] = system: BT-549 breast
[27] = system: TK-10 renal
[28] = system: SK-MEL-28 melanoma
[29] = system: HT29 colon
[30] = system: SF-295 CNS
[31] = system: UACC-62 melanoma
[32] = system: NCI-H460 NSCLC
[33] = system: UO-31 renal
[34] = system: RPMI-8226 leukemia
[35] = system: RXF 393 renal
[36] = system: OVCAR-3 ovarian
[37] = system: COLO 205 colon
[38] = system: MDA-MB-468 breast
[39] = system: SR leukemia
[40] = system: DU-145 prostate
[41] = system: MDA-MB-435 melanoma
[42] = system: HL-60(TB) leukemia
[43] = system: SN12C renal
[44] = system: NCI-H522 lung
[45] = system: EKVX NSCLC
[46] = system: PC-3 prostate
[47] = system: IGROV1 ovarian
[48] = system: M14 melanoma
[49] = system: NCI-H23 lung
[50] = system: HOP-62 NSCLC
[51] = system: KM12 colon
[52] = system: SNB-19 CNS
[53] = system: MDA-MB-231 breast
[54] = system: 786-0 renal
[55] = system: SW-620 colon
[56] = system: SK-MEL-2 melanoma
[57] = system: HCT-15 colon
[58] = system: SNB-75 CNS
[59] = system: MALME-3M melanoma
[60] = system: OVCAR-5 ovarian

`C[C@@H](Oc1cc(-c2cnn(C3CCNCC3)c2)cnc1N)c1c(Cl)cc(F)cc1Cl` gave a GI50 [1] of 2.19 µM, a TGI [1] of 6.11 µM and a GI50 [2] of 1.65 µM. The TGI [2] was 3.84 µM, the GI50 [3] was 0.614 µM and the TGI [3] was 1.86 µM. It also gave a GI50 [4] of 0.86 µM, a TGI [4] of 4.42 µM and a GI50 [5] of 1.35 µM. For the same molecule, the TGI [5] was 2.98 µM, the GI50 [6] was 0.131 µM and the TGI [6] was 0.262 µM. It also gave a GI50 [7] of 5.81 µM, a TGI [7] of 11 µM and a GI50 [8] of 5.4 µM. The TGI [8] was 9.79 µM, the GI50 [9] was 2.88 µM and the TGI [9] was 8.37 µM. For the same molecule, the GI50 [10] was 1.89 µM, the TGI [10] was 5.77 µM and the GI50 [11] was 0.277 µM. The TGI [11] was 0.66 µM, the GI50 [12] was 2.03 µM and the TGI [12] was 5.41 µM. The GI50 [13] was 2.78 µM, the TGI [13] was 7.16 µM and the GI50 [14] was 6.36 µM. The TGI [14] was 16 µM, the GI50 [15] was 1.33 µM and the TGI [15] was 2.63 µM. It also gave a GI50 [16] of 0.196 µM, a TGI [16] of 0.377 µM and a GI50 [17] of 0.728 µM. For the same molecule, the TGI [17] was 1.97 µM, the GI50 [18] was 1.67 µM and the TGI [18] was 3.04 µM. For the same molecule, the GI50 [19] was 1.39 µM, the TGI [19] was 2.7 µM and the GI50 [20] was 1.03 µM. The TGI [20] was 2.36 µM, the GI50 [21] was 1.48 µM and the TGI [21] was 3.71 µM. The GI50 [22] was 1.7 µM, the TGI [22] was 3.65 µM and the GI50 [23] was 2.21 µM. It also gave a TGI [23] of 4.91 µM, a GI50 [24] of 2.21 µM and a TGI [24] of 5.32 µM. For the same molecule, the GI50 [25] was 1.25 µM, the TGI [25] was 3.25 µM and the GI50 [26] was 1.85 µM. For the same molecule, the TGI [26] was 3.45 µM, the GI50 [27] was 3.66 µM and the TGI [27] was 7.63 µM. The GI50 [28] was 1.6 µM, the TGI [28] was 3.09 µM and the GI50 [29] was 1.02 µM. It also gave a TGI [29] of 2.3 µM, a GI50 [30] of 1.21 µM and a TGI [30] of 4.3 µM. The GI50 [31] was 1.39 µM, the TGI [31] was 3.09 µM and the GI50 [32] was 0.529 µM. It also gave a TGI [32] of 2.65 µM, a GI50 [33] of 2.64 µM and a TGI [33] of 6.43 µM. The GI50 [34] was 1.16 µM, the TGI [34] was 2.97 µM and the GI50 [35] was 1.94 µM. The TGI [35] was 3.61 µM, the GI50 [36] was 2.54 µM and the TGI [36] was 6.47 µM. For the same molecule, the GI50 [37] was 0.971 µM, the TGI [37] was 2.39 µM and the GI50 [38] was 0.725 µM. For the same molecule, the TGI [38] was 1.56 µM, the GI50 [39] was 0.0423 µM and the TGI [39] was 0.0738 µM. The GI50 [40] was 2.09 µM, the TGI [40] was 6.25 µM and the GI50 [41] was 2.57 µM. The TGI [41] was 6.79 µM, the GI50 [42] was 0.256 µM and the TGI [42] was 0.485 µM. The GI50 [43] was 2.11 µM, the TGI [43] was 8.7 µM and the GI50 [44] was 3.21 µM. The TGI [44] was 7.29 µM, the GI50 [45] was 2.2 µM and the TGI [45] was 6.7 µM. For the same molecule, the GI50 [46] was 1.94 µM, the TGI [46] was 5.57 µM and the GI50 [47] was 2.77 µM. For the same molecule, the TGI [47] was 7.26 µM, the GI50 [48] was 1.49 µM and the TGI [48] was 2.83 µM. For the same molecule, the GI50 [49] was 0.641 µM, the TGI [49] was 2.42 µM and the GI50 [50] was 2.16 µM. For the same molecule, the TGI [50] was 6.37 µM, the GI50 [51] was 0.0431 µM and the TGI [51] was 2.27 µM. The GI50 [52] was 3.87 µM, the TGI [52] was 8.61 µM and the GI50 [53] was 1.55 µM. The TGI [53] was 3.49 µM, the GI50 [54] was 1.48 µM and the TGI [54] was 2.96 µM. For the same molecule, the GI50 [55] was 1.25 µM, the TGI [55] was 4.65 µM and the GI50 [56] was 1.45 µM. The TGI [56] was 2.76 µM, the GI50 [57] was 1.72 µM and the TGI [57] was 5.47 µM. For the same molecule, the GI50 [58] was 1.9 µM, the TGI [58] was 3.85 µM and the GI50 [59] was 1.23 µM. It also gave a TGI [59] of 2.48 µM, a GI50 [60] of 2.22 µM and a TGI [60] of 6.92 µM.

`CCS(=O)(=O)N1CCN(c2ccc(Nc3ncc(C(N)=O)c(NC4CC4)n3)cc2)CC1` showed a GI50 [1] of 2.23 µM, a TGI [1] of 4.43 µM and a GI50 [2] of 1.68 µM. For the same molecule, the TGI [2] was 5.19 µM, the GI50 [3] was 1.41 µM and the TGI [3] was 22.3 µM. For the same molecule, the GI50 [4] was 1.83 µM, the TGI [4] was > 100 µM and the GI50 [5] was 6.05 µM. For the same molecule, the TGI [5] was > 100 µM, the GI50 [6] was 2.06 µM and the TGI [6] was 8.1 µM. It also gave a GI50 [7] of 2.06 µM, a TGI [7] of 5.72 µM and a GI50 [9] of 1.59 µM. The TGI [9] was 3.93 µM, the GI50 [10] was 4.3 µM and the TGI [10] was > 100 µM. The GI50 [11] was 0.366 µM, the TGI [11] was 1.27 µM and the GI50 [12] was 0.371 µM. For the same molecule, the TGI [12] was 1.4 µM, the GI50 [13] was 6.79 µM and the TGI [13] was > 100 µM. It also gave a GI50 [14] of 7.08 µM, a TGI [14] of 28.6 µM and a GI50 [15] of 2.01 µM. The TGI [15] was 13.3 µM, the GI50 [16] was 0.381 µM and the TGI [16] was 1.54 µM. For the same molecule, the GI50 [17] was 3.72 µM, the TGI [17] was 91.1 µM and the GI50 [18] was 10.2 µM. It also gave a TGI [18] of 63 µM, a GI50 [19] of 1.39 µM and a TGI [19] of 4.65 µM. For the same molecule, the GI50 [20] was 3.72 µM, the TGI [20] was 14.9 µM and the GI50 [21] was 2.01 µM. The TGI [21] was 4.45 µM, the GI50 [22] was 1.18 µM and the TGI [22] was 2.73 µM. It also gave a GI50 [23] of 2.5 µM, a TGI [23] of 5.15 µM and a GI50 [24] of 1.9 µM. It also gave a TGI [24] of 21.5 µM, a GI50 [25] of 0.633 µM and a TGI [25] of 10.6 µM. It also gave a GI50 [26] of 1.1 µM, a TGI [26] of 2.51 µM and a GI50 [27] of 2.2 µM. It also gave a TGI [27] of 5.5 µM, a GI50 [28] of 2.93 µM and a TGI [28] of 50.7 µM. For the same molecule, the GI50 [29] was 4.09 µM, the TGI [29] was 56.4 µM and the GI50 [30] was 1.26 µM. It also gave a TGI [30] of 3.43 µM, a GI50 [31] of 9.42 µM and a TGI [31] of 23.9 µM. It also gave a GI50 [32] of 3.17 µM, a TGI [32] of 51.7 µM and a GI50 [33] of 2.92 µM. The TGI [33] was > 100 µM, the GI50 [34] was 0.155 µM and the TGI [34] was 0.401 µM. It also gave a GI50 [35] of 1.51 µM, a TGI [35] of 3.73 µM and a GI50 [36] of 2.61 µM. The TGI [36] was 7.63 µM, the GI50 [37] was 0.485 µM and the TGI [37] was 2.18 µM. For the same molecule, the GI50 [38] was 2.05 µM, the TGI [38] was 3.75 µM and the GI50 [39] was 0.368 µM. The TGI [39] was 1.29 µM, the GI50 [40] was 2.82 µM and the TGI [40] was 18.8 µM. The GI50 [41] was 1.63 µM, the TGI [41] was 8.98 µM and the GI50 [42] was 0.418 µM. For the same molecule, the TGI [42] was 2.04 µM, the GI50 [43] was 1.76 µM and the TGI [43] was 10.2 µM. The GI50 [44] was 0.674 µM, the TGI [44] was 4.97 µM and the GI50 [45] was 1.92 µM. The TGI [45] was 10.2 µM, the GI50 [46] was 10.4 µM and the TGI [46] was > 100 µM. The GI50 [47] was 2.82 µM, the TGI [47] was 16.3 µM and the GI50 [48] was 0.301 µM. For the same molecule, the TGI [48] was 3.42 µM, the GI50 [49] was 1.29 µM and the TGI [49] was 4.25 µM. It also gave a GI50 [50] of 1.89 µM, a TGI [50] of 5.01 µM and a GI50 [51] of 0.44 µM. The TGI [51] was 12 µM, the GI50 [52] was 8.88 µM and the TGI [52] was > 100 µM. It also gave a GI50 [53] of 2.93 µM, a TGI [53] of 33.6 µM and a GI50 [54] of 1.6 µM. For the same molecule, the TGI [54] was 3.41 µM, the GI50 [55] was 44.9 µM and the TGI [55] was > 100 µM. For the same molecule, the GI50 [56] was 1.87 µM, the TGI [56] was 3.89 µM and the GI50 [57] was 1.58 µM. The TGI [57] was 3.27 µM, the GI50 [58] was 4.03 µM and the TGI [58] was 8.56 µM. It also gave a GI50 [59] of 0.539 µM, a TGI [59] of 4.14 µM and a GI50 [60] of 4.25 µM. The TGI [60] was 18.7 µM.
